Measurements: patent US20250222009A1, “DINUCLEAR GOLD(I) COMPLEXES FOR TREATING CANCER” (KING FAHD UNIVERSITY OF PETROLEUM AND MINERALS, priority 2024, published 2025)
pIC50: −log10 of the molar value.

Assays:
A549 cells [1] = assay: Cell cycle analysis (propidium iodide, flow cytometry); assay type: cell-based, human; settings: A549, 24 h, 0.06-0.60 μM
Protocol: (§1) 2.0×10^5 A549 cells were seeded in 6-well plates in a complete medium and treated with the complex 3. Assay results were detected by flow cytometry on a BD FACSCanto II flow cytometer. Data were analyzed using BD FACSDiva v.8.0.1 software (BD Biosciences) unless otherwise indicated. Tumor cells were treated for 72 h with complex 3, then stained for 15 minutes with FITC Annexin-V (Thermo Fisher Scientific) and 7AAD (BD Pharmingen, Milan, Italy). Activated caspase-3,7 was detected using the CaspaTag Caspase-3,7 assay (Merck Millipore) after an incubation of 24 h with complex 3. For B-cell lymphoma/leukemia-2 protein (Bcl-2) and Bcl-2 associated x protein (Bax) analysis, cells were treated for 72 h with C3, then fixed and permeabilized (FIX & PERM Cell Fixation & Cell Permeabilization Kit, Life Technologies). […] The distribution of cells in different cell cycle phases was quantified using ModFit LT 4.0 software (Verity Software House, Topsham, ME, USA) (See: Sulaiman, A. A. A.; Casagrande, N.; Borghese, C.; Corona, G.; Isab, A. A.; Ahmad, S.; Aldinucci, D.; Altaf M. Design, Synthesis, and Preclinical Activity in Ovarian Cancer Models of New Phosphanegold(I)—N-Heterocyclic Carbene Complexes. J Med Chem 2022, 65, 14424-14440, which is incorporated herein by reference in its entirety). […]

A549 cells [2] = assay: Annexin-V-FITC/7AAD apoptosis, flow cytometry; assay type: cell-based, human; settings: A549, 72 h, 0.06-0.60 μM
Protocol: as §1

[3] = test system: A2780 ovarian cancer cells; assay: MTT cytotoxicity assay, A2780; assay type: cell-based, human; settings: 72 h, mean (SD)
Protocol: (§2) The human epithelial ovarian cancer A2780 cell line and its cisplatin-resistant clone A2780cis were obtained from Sigma-Aldrich (Milano, Italy). A2780cis cells were continuously exposed to 1 μM cisplatin to maintain cisplatin resistance. A549 cells (Human non-small cell lung cancer), MCF7 (metastatic breast cancer), PC3 (highly aggressive metastatic prostate cancer), and MG63 (osteosarcoma) were obtained from the American Type Culture Collection (ATCC). Cells were authenticated in laboratory using the PowerPlex 16 HS System. A2780, A2780cis, and PC3 cells were cultured in RPMI-1640 medium; MG63 and MCF7 cells were cultured in DMEM, and A549 cells were cultured in F12 NUT-MIX. The culture medium contained about 10% fetal bovine serum (FBS) (Gibco, Thermo Fisher Scientific, Monza, Italy), about 1% (v/v) of penicillin (10,000 units/mL)-streptomycin (10 mg/mL), and about 1% (v/v) L-glutamine (200 mM) (all from Sigma-Aldrich). Cells were cultured at 37° C. in a 5% CO2, fully humidified atmosphere.
(§3) 2.5×10^3 (PC3, MG63, MCF7) or 4.0×10^3 (A2780, A2780cis, A549) cells were seeded in 96-well microplates in 100 μL culture medium. Cells, allowed to adhere for 24 h, were then treated in triplicate with increasing concentrations of gold compounds. Cisplatin was included as a reference drug. Cell viability was evaluated using 3-(4,5-dimethylthiazol-2-yl)-2,5-diphenyltetrazolium bromide (MTT) assay (Sigma-Aldrich) after 72 h of treatment. Half maximal inhibitory concentrations (IC50), IC25, and IC75 were calculated using the CalcuSyn software version 2 (Biosoft, Ferguson, MO, USA) (See: Chou, T. C.; Talalay, P. Quantitative Analysis of Dose-Effect Relationships: The Combined Effects of Multiple Drugs or Enzyme Inhibitors. Adv. Enzyme Regul. 1984, 22, 27-55, which is incorporated herein by reference in its entirety). Fold resistance was calculated as the ratio of the IC50 of the A2780cis to that of the parental cell line A2780. Alternatively, cell viability was assayed by crystal violet staining (See: Feoktistova, M.; Geserick, P.; Leverkus, M. Crystal Violet Assay for Determining Viability of Cultured Cells. Cold Spring Harb Protoc 2016, 2016, pdb.prot087379, which is incorporated herein by reference in its entirety). Alternatively, after drug treatment, the culture Medium was removed, cells washed, fixed, and stained, and the Crystal Violet solution lasted 20 minutes (See: Sulaiman, A. A. A.; Casagrande, N.; Borghese, C.; Corona, G.; Isab, A. A.; Ahmad, S.; Aldinucci, D.; Altaf M. Design, Synthesis, and Preclinical Activity in Ovarian Cancer Models of New Phosphanegold(I)—N-Heterocyclic Carbene Complexes. J Med Chem 2022, 65, 14424-14440, which is incorporated herein by reference in its entirety).

[4] = test system: PC3 (androgen-resistant prostate cancer); assay: MTT cytotoxicity assay, PC3; assay type: cell-based; settings: 72 h, mean (SD)
Protocol: as §2, §3

## CC(C)c1cccc(C(C)C)c1-n1ccn(-c2c(C(C)C)cccc2C(C)C)[c]1=[Au-][P+](CCNCC[P+]([Au-]=[c]1n(-c2c(C(C)C)cccc2C(C)C)ccn1-c1c(C(C)C)cccc1C(C)C)(C1CCCCC1)C1CCCCC1)(C1CCCCC1)C1CCCCC1 [Complex 3, [(Au(IPr))2(C28H24P2)](PF6)2]
A549 cells [1]
  cells in G0/G1 phase of the cell cycle: accumulation
  cells in S phase of the cell cycle: decrease
A549 cells [2]
  percentage of Annexin-V-positive cells (early apoptosis): increased in a dose-dependent manner
  percentage of double stained Annexin-V/7AAD-positive cells (late apoptosis): increased in a dose-dependent manner
[3]
  pIC50: 6.96
[4]
  pIC50: 6.62
